The results in this text go back to patent US5744478A, “Thiazolo [3,2-a] quinoline and thiazolo [3,2-a] naphthyridine derivatives” (Bayer Aktiengesellschaft, priority 1994, dated 1998).

Test in all cases: MIC by serial dilution on Iso-Sensitest Agar
Common to all, as to format: cell-based

One assay concerns E. coli ATCC 25922. The following applies: Escherichia coli, ATCC25922, 37° C., about 20 hours, about 10^4 colony-forming particles. Here is the method: (§1) The minimum inhibitory concentrations (MIC) of the compounds according to the invention were determined by serial dilution methods on Iso-Sensitest Agar (Oxoid). For each test substance, a number of agar plates were prepared which, in each case at double the dilution, contained decreasing concentrations of the active compound. The agar plates were inoculated using a multipoint inoculator (Denley). For inoculation, overnight cultures of the pathogens were used which had previously been diluted such that each inoculation point contained about 10^4 colony-forming particles. The inoculated agar plates were incubated at 37° C., and the bacterial growth was read off after about 20 hours. The MIC value (μg/ml) indicates the lowest active compound concentration at which no growth was to be observed using the naked eye.

The subject of the next assay is E. coli Neumann. The following applies: Escherichia coli, 37° C., about 20 hours, about 10^4 colony-forming particles. The protocol:
as §1

In assay [1] the test system is Enterococcus faecalis 27101. The following applies: 37° C., about 20 hours, about 10^4 colony-forming particles. Here is the method: as §1
For assay [2], the system named is Enterococcus faecalis 9790. The following applies: 37° C., about 20 hours, about 10^4 colony-forming particles. The protocol: as §1
The subject of the next assay is Klebsiella pneumonia 63. The following applies: Klebsiella pneumoniae, 37° C., about 20 hours, about 10^4 colony-forming particles. The protocol:
as §1

Assay [3] relates to Klebsiella pneumonia 8085. The following applies: Klebsiella pneumoniae, 37° C., about 20 hours, about 10^4 colony-forming particles. Here is the method:
as §1

For another assay, the system named is Micrococcus luteus 9341. The following applies: 37° C., about 20 hours, about 10^4 colony-forming particles. The protocol:
as §1

In a further assay the test system is Providencia sp. 12012. The following applies: 37° C., about 20 hours, about 10^4 colony-forming particles. Here is the method:
as §1

For assay [4], the system named is Staphylococcus aureus 133. The following applies: 37° C., about 20 hours, about 10^4 colony-forming particles. The protocol: as §1
The test system of assay [5] is Staphylococcus aureus ATCC29213. The following applies: 37° C., about 20 hours, about 10^4 colony-forming particles. The protocol: as §1
Assay [6] relates to Staphylococcus aureus ICB 25701. The following applies: ICB25701, 37° C., about 20 hours, about 10^4 colony-forming particles. The protocol: as §1
The subject of assay [7] is Staphylococcus aureus ICB 25768. The following applies: ICB25768, 37° C., about 20 hours, about 10^4 colony-forming particles. The protocol:
as §1

Molecules are shown by their SMILES. Values after ≈ are worked out from the molar mass of the structure shown.

On to `CNC1C=CCC2CN(c3c(F)cc4c(=O)c(C(=O)O)c5scc6n5c4c3OC6)CC21` (stereo not drawn) [Example 3, 7-Fluoro-8-(2-methylamino-8-azabicyclo[4.3.0]non-3-en-8-yl)-5-oxo-9,1-(epoxymethano)-5H-thiazolo[3,2-a]quinoline-4-carboxylic acid], for which the MIC (with E. coli ATCC 25922; in the assay with E. coli Neumann; in assay [1]; in [2]; with Klebsiella pneumonia 63; in assay [3]) was no more than 0.015 µg/mL in each case. For the same compound, the MIC is no more than 0.015 µg/mL with Micrococcus luteus 9341; no more than 0.015 µg/mL against Providencia sp. 12012; no more than 0.015 µg/mL in assay [4]; no more than 0.015 µg/mL in assay [5]; 0.06 µg/mL (≈ 0.136 µM) in [6]; 0.5 µg/mL (≈ 1.13 µM) in assay [7].

`NC1C=CCC2CN(c3c(F)cc4c(=O)c(C(=O)O)c5scc6n5c4c3OC6)CC12` (stereo not drawn) [Example 4, 8-(2-Amino-8-azabicyclo[4.3.0]non-3-en-8-yl)-7-fluoro-5-oxo-9,1-(epoxymethano)-5H-thiazolo[3,2-a]quinoline-4-carboxylic acid]: the MIC (against E. coli ATCC 25922; with E. coli Neumann; in assay [1]; in [2]; in the assay with Klebsiella pneumonia 63; in assay [3]) was no more than 0.015 µg/mL throughout. In addition, the MIC with Micrococcus luteus 9341 is no more than 0.015 µg/mL; against Providencia sp. 12012, no more than 0.015 µg/mL; in [4] it was no more than 0.015 µg/mL; in assay [5], no more than 0.015 µg/mL; in assay [6], 0.06 µg/mL (≈ 0.14 µM); in assay [7], 0.25 µg/mL (≈ 0.585 µM).

As to `O=C(O)c1c(=O)c2cc(F)c(N3C[C@@H]4CCCN[C@@H]4C3)c3c2n2c(csc12)CO3` [Example 2], the MIC is no more than 0.015 µg/mL in the assay with E. coli ATCC 25922; no more than 0.015 µg/mL in the assay on E. coli Neumann; 0.03 µg/mL (≈ 0.0722 µM) in assay [1]; 0.03 µg/mL (≈ 0.0722 µM) in assay [2]; no more than 0.015 µg/mL with Klebsiella pneumonia 63; no more than 0.015 µg/mL in [3]. In addition, the MIC was 0.125 µg/mL (≈ 0.301 µM) with Micrococcus luteus 9341; no more than 0.015 µg/mL against Providencia sp. 12012; no more than 0.015 µg/mL in assay [4]; no more than 0.015 µg/mL in assay [5]; 0.5 µg/mL (≈ 1.2 µM) in [6]; 32 µg/mL (≈ 77 µM) in assay [7].

As to `CC1C=CC(N)C2CN(c3c(F)cc4c(=O)c(C(=O)O)c5scc6n5c4c3OC6)CC12` (stereo not drawn) [Example 5, 8-(2-Amino-5-methyl-8-azabicyclo[4.3.0]non-3-en-8-yl)-7-fluoro-5-oxo-9,1-(epoxymethano)-5H-thiazolo[3,2-a]quinoline-4-carboxylic acid], the MIC (against E. coli ATCC 25922; in the assay on E. coli Neumann; in assay [1]; in assay [2]; against Klebsiella pneumonia 63; in assay [3]) was no more than 0.015 µg/mL each time. The MIC is no more than 0.015 µg/mL in the assay with Micrococcus luteus 9341; no more than 0.015 µg/mL against Providencia sp. 12012; no more than 0.015 µg/mL in [4]; no more than 0.015 µg/mL in assay [5]; 0.06 µg/mL (≈ 0.136 µM) in assay [6]; 0.5 µg/mL (≈ 1.13 µM) in assay [7].

By MIC is commonly meant the lowest concentration found to suppress growth. Low values mean inhibition by little substance, high ones a need for much substance.
